Several values for one entry are separate records, joined by “and”; a condition that tells them apart may be missing. Identical values can stand only once. Counter-ions that a name gives are not always drawn. Marks after values point to notes of the source that are not given here.
How the values were obtained:
[1] = system: human carcinoma cells of the naso-pharynx; details: cell culture; cited from earlier work
[2] = system: castor oil induced diarrhea in rats; experiment: Castor oil induced diarrhea / defecation, total faecal matter over 4 h (Table 1); format: in vivo; details: 5.0 mg kg^−1 p.o.
Description: Groups of six mice each were placed individually in separate cages with filter papers at the bottom. Different doses of the extracts were administered orally to different groups. The non-specific antidiarrhoeal reference drug diphenoxylate HCl (5.0 mg kg^−1, p.o.) and 1% CMC ([…], p.o.) were administered to two groups and later served as controls (Melo et al, J. Pharm. Pharmacol. 40 (1988), […]). The total number of the faecal matter in each group was assessed every hour for the next 4 h. Percent reduction in the total number of faeces in the treated groups was obtained by comparison with control animals.
The method of Awouters et al. (J. Pharm. Pharmacol, 30, 1978, 41–45) as modified by Nwodo and Alumanah (J. Ethnopharmacol, 31, 1991, 395–398) was used. Briefly, rats fasted for 24 h were randomly allocated to five groups of six animals each. One group received 1% CMC (10 mL kg^−1, p.o.), other groups received orally the different dosage of drug extract. Another group given diphenoxylate HCl (5.0 mg kg^−1, p.o.) as suspension. After 60 min each animal was given with 2 ml of castor oil by orogastric cannula, and placed in a separate cage and observed for 4 h defecation. Transparent plastic dishes were placed beneath each cage and the characteristic diarrhoeal droppings were noted. The total number of the faecal matter in each group was assessed every hour for the next 4 h. […]

[3] = system: cysteamine induced duodenal ulcers in rats; experiment: Cysteamine induced duodenal ulcers (Table 5); format: in vivo; details: 50 mg/kg
Source text: The efficacy is compared with the known standard synthetic drug Ranitidine for treatment of. […] Where as the formulation F5 contains […]. indica, Cinamommum sp. and Buchanania lanzan.

[4] = system: indomethacin induced acute gastric ulcers in rats; experiment: Indomethacin induced acute gastric ulcers (Table 4); format: in vivo; details: 50 mg/kg
Description: To assess the efficacy of different formulations against the indomethacin induced gastric ulcer different doses (25–100 mg kg^−1, p.o.) of formulations were administered to groups of 10 mice for each dose, while one group of the same number of mice served as control and the
The results of Table 4 represents that there is a significant and dose dependent anti ulcer activity and percentage ratio ranges of protection from 27.03 to 75.38.

[5] = system: castor oil-stimulated gastrointestinal transit in rats; experiment: Small intestinal transit, charcoal meal (Table 3); format: in vivo; details: 0.1 mg kg^−1 IP
Description: Animals were divided into four groups of six rats each and each animal was given orally 1 ml of charcoal meal (5% activated charcoal suspended in 1% CMC) 60 min after an oral dose of drugs or vehicle. Group I was administered with 1% CMC (10 ml kg^−1) and animals in the other groups received various formulations. Another group received atropine sulfate (0.1 mg kg^−1, IP) as standard drug. After 30 min animals were killed by cervical dislocation and the intestine was removed without stretching and placed lengthwise on moist filter paper. The length of the intestine (pyloric sphincter to caecum) and the distance travelled by the charcoal as a percentage of that length were evaluated for each animal, and group means were compared and expressed as percentage inhibition (Lutterodt, J. Ethnopharmacol. 25, 1989, 235–247). […] Therefore the dose dependent effect of the formulation was similar to the synthetic drug atropine. But long use of atropine completely blocks the secretions it is an adverse effect.

COc1cc2c3c(O)c1OCc1ccc(cc1)C[C@@H]1c4c(cc(OC)c(OC)c4Oc4ccc(cc4)CC3=NCC2)CCN1C [Cissampareine]
inhibitory activity against human carcinoma cells of the naso-pharynx [1]: significant and reproducible inhibitory activity

CCOC(=O)C1(c2ccccc2)CCN(CCC(C#N)(c2ccccc2)c2ccccc2)CC1 [Diphenoxylate HCl, diphenoxylate HCl]
Total no of faecal matter ([2]; counted over 4 h, six rats per group): 16 | % Reduction (Inhibition) ([2]; vs control 1% CMC): 75.38%

CNC(=C[N+](=O)[O-])NCCSCc1ccc(CN(C)C)o1 [Ranitidine]
% Protection [3]: 77% and 77.9% | Ulcer incidence % [3]: 20% | Ulcer incidence No [3]: 2/10 | Ulcer score Total lesion area [3]: 1.06 ± 0.17^c mm^2 | % Curative ratio [4]: 82.20% | Ulcer index [4]: 0.81 ± 0.01^b

CN1[C@@H]2CC[C@H]1CC(OC(=O)C(CO)c1ccccc1)C2.CN1[C@@H]2CC[C@H]1CC(OC(=O)C(CO)c1ccccc1)C2.O=S(=O)(O)O (some centres unmarked) [Atropine sulphate, atropine sulfate]
Mean distance travelled by charcoal [5]: 26.5 ± 2.6^b cm | Reduction (%) [5]: 68.33%

— patent US7172772B2, “Herbal composition for gastrointestinal disorders” (Council of Scientific & Industrial Research, priority 2003, dated 2007)
